# Test results reported in ChEMBL document CHEMBL1201862, “PubChem BioAssay data set” (2004).
#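 Cultured in 96-well plates, cells were exposed to test compound for 48 hours across five concentrations. GI50 = concentration required for 50% inhibition of growth.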 The source made the active and inactive calls. No stated cut-off is given here; in the data, active = GI50 up to about 1.1 µM and inactive = higher.
# Legend:
# Test in all cases: NCI anticancer screen, dose series, 48 h
# 786-0 = test system: 786-0
# CCRF-CEM = test system: CCRF-CEM
# DLD-1 = test system: DLD-1
# DMS-273 = test system: DMS-273
# HCC 2998 = test system: HCC 2998
# HCT-116 = test system: HCT-116
# HL-60 = test system: HL-60
# HOP-62 = test system: HOP-62
# K562 = test system: K562
# KM-20L2 = test system: KM-20L2
# LOX IMVI = test system: LOX IMVI
# LXFL 529 = test system: LXFL 529
# M14 = test system: M14
# MOLT-4 = test system: MOLT-4
# NCI-H226 = test system: NCI-H226
# NCI-H23 = test system: NCI-H23
# NCI-H460 = test system: NCI-H460
# NCI-H522 = test system: NCI-H522
# OVCAR-4 = test system: OVCAR-4
# RPMI-8226 = test system: RPMI-8226
# RXF 393 = test system: RXF 393
# SF-539 = test system: SF-539
# SK-MEL-28 = test system: SK-MEL-28
# SN12C = test system: SN12C
# SNB-19 = test system: SNB-19
# SNB-75 = test system: SNB-75
# SNB-78 = test system: SNB-78
# U-251 = test system: U-251
# A498 = test system: A498
# A549 = test system: A549
# ACHN = test system: ACHN
# BT-549 = test system: BT-549
# CAKI-1 = test system: CAKI-1
# COLO 205 = test system: COLO 205
# DU-145 = test system: DU-145
# EKVX = test system: EKVX
# HCT-15 = test system: HCT-15
# HOP-92 = test system: HOP-92
# HT-29 = test system: HT-29
# Hs-578T = test system: Hs-578T
# IGROV-1 = test system: IGROV-1
# KM12 = test system: KM12
# MCF7 = test system: MCF7
# MDA-MB-231 = test system: MDA-MB-231
# MDA-MB-435 = test system: MDA-MB-435
# MDA-N = test system: MDA-N
# Malme-3M = test system: Malme-3M
# NCI/ADR-RES = test system: NCI/ADR-RES
# OVCAR-3 = test system: OVCAR-3
# OVCAR-5 = test system: OVCAR-5
# OVCAR-8 = test system: OVCAR-8
# PC-3 = test system: PC-3
# SF-268 = test system: SF-268
# SF-295 = test system: SF-295
# SK-MEL-2 = test system: SK-MEL-2
# SK-MEL-5 = test system: SK-MEL-5
# SK-OV-3 = test system: SK-OV-3
# SR = test system: SR
# SW-620 = test system: SW-620
# T47D = test system: T47D
# TK-10 = test system: TK-10
# UACC-257 = test system: UACC-257
# UACC-62 = test system: UACC-62
# UO-31 = test system: UO-31
smiles,measurement,setting,value
Cc1cnc(-c2ccccc2)o1,GI50,786-0,> 100000 nM (inactive)
same,GI50,CCRF-CEM,> 100000 nM (inactive)
same,GI50,DLD-1,> 100000 nM (inactive)
same,GI50,DMS-273,52600 nM (inactive)
same,GI50,HCC 2998,> 100000 nM (inactive)
same,GI50,HCT-116,> 100000 nM (inactive)
same,GI50,HL-60,> 100000 nM (inactive)
same,GI50,HOP-62,> 100000 nM (inactive)
same,GI50,K562,> 100000 nM (inactive)
same,GI50,KM-20L2,> 100000 nM (inactive)
same,GI50,LOX IMVI,> 100000 nM (inactive)
same,GI50,LXFL 529,> 100000 nM (inactive)
same,GI50,M14,> 100000 nM (inactive)
same,GI50,MOLT-4,> 100000 nM (inactive)
same,GI50,NCI-H226,> 100000 nM (inactive)
same,GI50,NCI-H23,> 100000 nM (inactive)
same,GI50,NCI-H460,> 100000 nM (inactive)
same,GI50,NCI-H522,> 100000 nM (inactive)
same,GI50,OVCAR-4,> 100000 nM (inactive)
same,GI50,RPMI-8226,> 100000 nM (inactive)
same,GI50,RXF 393,> 100000 nM (inactive)
same,GI50,SF-539,> 100000 nM (inactive)
same,GI50,SK-MEL-28,> 100000 nM (inactive)
same,GI50,SN12C,> 10000 nM (inactive)
same,GI50,SNB-19,> 100000 nM (inactive)
same,GI50,SNB-75,> 100000 nM (inactive)
same,GI50,SNB-78,> 100000 nM (inactive)
same,GI50,U-251,> 100000 nM (inactive)
CC1=C(O)C(=O)C=C2C1=CC=C1[C@@]2(C)CC[C@@]2(C)[C@@H]3C[C@](C)(C(=O)O)CC[C@]3(C)CC[C@]12C [CELASTROL],GI50,786-0,14.7 nM (active)
same,GI50,A498,33.5 nM (active)
same,GI50,A549,422 nM (active)
same,GI50,ACHN,16.9 nM (active)
same,GI50,BT-549,12.4 nM (active)
same,GI50,CAKI-1,13.5 nM (active)
same,GI50,CCRF-CEM,< 10 nM (active)
same,GI50,COLO 205,16.6 nM (active)
same,GI50,DU-145,67.5 nM (active)
same,GI50,EKVX,47.1 nM (active)
same,GI50,HCC 2998,30.6 nM (active)
same,GI50,HCT-116,22.1 nM (active)
same,GI50,HCT-15,11.3 nM
same,GI50,HL-60,17.3 nM (active)
same,GI50,HOP-62,237 nM (active)
same,GI50,HOP-92,10.1 nM (active)
same,GI50,HT-29,33 nM (active)
same,GI50,Hs-578T,42.7 nM (active)
same,GI50,IGROV-1,17.8 nM (active)
same,GI50,K562,20.1 nM (active)
same,GI50,KM12,169 nM (active)
same,GI50,LOX IMVI,18.2 nM (active)
same,GI50,M14,44.9 nM (active)
same,GI50,MCF7,81.8 nM (active)
same,GI50,MDA-MB-231,21 nM (active)
same,GI50,MDA-MB-435,35.1 nM (active)
same,GI50,MDA-N,23.4 nM (active)
same,GI50,MOLT-4,12.4 nM (active)
same,GI50,Malme-3M,35.2 nM (active)
same,GI50,NCI-H226,160 nM (active)
same,GI50,NCI-H23,52.6 nM (active)
same,GI50,NCI-H460,149 nM (active)
same,GI50,NCI-H522,14.3 nM (active)
same,GI50,NCI/ADR-RES,25.5 nM (active)
same,GI50,OVCAR-3,26.4 nM (active)
same,GI50,OVCAR-4,18.8 nM (active)
same,GI50,OVCAR-5,180 nM (active)
same,GI50,OVCAR-8,22.6 nM (active)
same,GI50,PC-3,39.3 nM (active)
same,GI50,RPMI-8226,< 13.6 nM (active)
same,GI50,RXF 393,11.1 nM (active)
same,GI50,SF-268,44.6 nM (active)
same,GI50,SF-295,194 nM (active)
same,GI50,SF-539,81.1 nM (active)
same,GI50,SK-MEL-28,16.4 nM (active)
same,GI50,SK-MEL-2,119 nM (active)
same,GI50,SK-MEL-5,70 nM (active)
same,GI50,SK-OV-3,238 nM (active)
same,GI50,SN12C,37.6 nM (active)
same,GI50,SNB-19,75.7 nM (active)
same,GI50,SNB-75,132 nM (active)
same,GI50,SR,< 10 nM (active)
same,GI50,SW-620,19.9 nM (active)
same,GI50,T47D,19.8 nM (active)
same,GI50,TK-10,< 10.5 nM (active)
same,GI50,U-251,29.8 nM (active)
same,GI50,UACC-257,25.6 nM (active)
same,GI50,UACC-62,23.7 nM (active)
same,GI50,UO-31,30.8 nM (active)
